B1: chicken ovalbumin protein: chicken ovalbumin protein used as immunization antigen (protein, UniProt P01012 2-386, looked up)
Ovalbumin: GSIGAASMEFCFDVFKELKVHHANENIFYCPIAIMSALAMVYLGAKDSTRTQINKVVRFDKLPGFGDSIEAQCGTSVNVHSSLRDILNQITKPNDVYSFSLASRLYAEERYPILPEYLQCVKELYRGGLEPINFQTAADQARELINSWVESQTNGIIRNVLQPSSVDSQTAMVLVNAIVFKGLWEKAFKDEDTQAMPFRVTEQESKPVQMMYQIGLFRVASMASEKMKILELPFASGTMSMLVLLPDEVSGLEQLESIINFEKLTEWTSSNVMEERKIKVYLPRMKMEEKYNLTSVLMAMGITDVFSSSANLSGISSAESLKISQAVHAAHAEINEAGREVVGSAEAGVDAASVSEEFRADHPFLFCIKHIATNAVLFFGRCVSP

Columns and labels:
[1] = system: 293T cells transfected with FKBP-Caspase 8; test: Inducible cell killing in 293T cells co-transfected with eGFP and CMV-promoter driven FKBP-Casp8 (7AAD FACS); type: cell-based
Excerpt: FIG. 4. Generation of the FKBP-Casp8 fusion gene with inducible cell killing activity. (A) Inducible activation of Caspase 8 through dimerization. The chemical dimerizer AP20187 causes dimerization/activation of Caspase 8 through interaction of adjacent FKBP binding sites. M, myristoylation signal; FKBP, FK506 binding domain; caspase, human activated caspase 8 (fragment Ser217-Aps479. ref) was cloned into the pC4M-Fv2E vector (Ariad Pharmaceuticals) to express the FKBP2-Casp8 fusion protein whose activation is induced by dimerization with AP20187. (B-C) Dose-dependent induction of apoptosis in cells transfected with FKBP-Caspase 8. 293T cells were co-transfected with plasmids expressing eGFP alone, or with CMV-promoter driven FKBP-Casp8. Transfected cells were cultured for 30 hours and then various amounts of AP20187 dimerizer was added. The cells were then cultured for 24 hours, harvested, stained with 7AAD, and analyzed by FACS for GFP and 7AAD. (B) GFP+ (transfected) cells were gated and the percentage of dead cells (7AAD+) was analyzed. (C) GFP− (untransfected bystander) cells were similarly analyzed. At least 3 independent experiments are repeated.
The FKBP-Caspase8 fusion gene with inducible cell killing activity was constructed (FIG. 4; and Chang et al. 2003. Activation of procaspases by FK506 binding protein-mediated oligomerization. Sci STKE 2003:PL1). […] Therefore, FKBP-Casp8 activation by AP20187 kills target cells expressing the gene but not bystander cells, an important point for depleting specific target cells in vivo.

HepG2 cells = test: Hepatocyte-specific apoptosis with Alb-FKBP-Casp8 in HepG2 cells (7AAD FACS); type: cell-based; conditions: AP20187 2 nM, 24 hours
Excerpt: (§1) FIG. 5. Generation of Alb-FKBP-Casp8 transgenic DKO (AFC8/DKO) mice. (A) The Alb-FKBP-Casp8 transgene structure and AFC8/DKO-hu HSC/Hep mice: the FKBP2Casp8 fusion gene was cloned into the liver specific transgenic construct with the Albumin promoter (see Heckel et al. 1990. Neonatal bleeding in transgenic mice expressing urokinase-type plasminogen activator. Cell 62:447-56). (B) Hepatocyte-specific apoptosis with expression from the albumin promoter/enhancer. […] As described in FIG. 6B, the FKBP-Casp8 gene controlled by CMV enhancer or the hepatocyte-specific albumin promoter was co-transfected with GFP-expressing plasmid in 293T and HepG2 cells. Transfected cells were cultured for 30 hours and AP20187 dimerizer (2 nM) was added to the culture medium. The cells were then cultured for 24 hours, harvested, stained with 7AAD, and analyzed for GFP and 7AAD. GFP+ cells were analyzed for 7AAD uptake (dead cells). (C) Generation of Alb-FKBP-Casp8/DKO transgenic mice. Standard transgenic mouse procedure was used to inject the transgene construct into fertilized DKO embryos. In the initial screening of 11 mice from two injections, one transgenic founder was identified. […]

293T cells = test: Hepatocyte-specific apoptosis with Alb-FKBP-Casp8 in 293T cells (7AAD FACS); type: cell-based; conditions: AP20187 2 nM, 24 hours
Excerpt: as §1

murine hepatocytes = test: Dimer injection in AFC8/DKO transgenic mice: mouse liver damage (plasma ALT, H&E); type: in vivo
Description: (§2) FIG. 9. […] AFC8/DKO transgenic mice were treated with AP20187 (5 μg/g). A. Plasma ALT levels were measured at 24 hr and 72 hr (and 3-6 days, not shown) post treatment. […] Two non-TG DKO mice were used as controls (dashed line, background). B. Livers were harvested at 24 h after the 2nd injection and H&E stained. […] V, vein. C. […] AFC8/DKO or DKO mice were treated with AP20187 (5 μg/g) one hour prior to intra-splenic injection of human hepatocytes (2×10e6/mouse). Sera were collected at 80 days post transfer and human albumin levels were determined by ELISA. […] AFC8/DKO transgenic mice were treated with AP20187 (5 μg/g). Plasma ALT levels were measured at 24 hr and 72 hr (and 3-6 days, not shown) post treatment (FIG. 9A). […] Two non-TG DKO mice were used as controls (dashed line, background). Livers were harvested at 24 h after the 2nd injection and H&E stained (FIG. 9B). […] V, vein. […] AFC8/DKO or DKO mice were treated with AP20187 (5 μg/g) one hour prior to intra-splenic injection of human hepatocytes (2×10e6/mouse). Sera were collected at 80 days post transfer and human albumin levels were determined by ELISA.

[2] = system: human hepatocyte engraftment; test: Human hepatocyte engraftment in AP20187-treated AFC8/DKO mice (human albumin ELISA); type: in vivo, mouse
Description: as §2

FKBP-Casp8 = conditions: 0.25, 1, 4 and 10 mg/kg, peritoneal; cited from earlier work
Ova-specific human IgG = test: Immunization of DKO-hu HSC mice, Ova-specific human IgG induction; type: in vivo; conditions: DKO-hu HSC mouse
Excerpt: FIG. 8. Antigen-Fc fusion proteins give enhanced antigen-specific IgG induction in vivo.
Human IgG+ B cells were increased by activating human T cells in the spleen in vitro with anti-CD3/CD28 mAb (FIG. 7). […] Ova-specific human IgG induction is enhanced by using the fusion protein between the same chicken ovalbumin protein with the Fc domain of human IgG (FIG. 8).

human T and B cells = test: Ova vaccination of DKO-hu mice, Ova-specific T and B cell responses; type: in vivo, mouse; conditions: 3 weeks post vaccination
Description: FIG. 1. Long-term, stable human hemato-lymphopoiesis in HSC-DKO Mice. Human fetal liver CD34+ cells were injected intra-hepatically in newborn (1-3 days old) DKO mice. At 12-50 weeks post transplant, the human CD45^+, murine CD45^− cells in PBMC, lymph node (LN), spleen, bone marrow and thymus were analyzed by multi-color FACS. A: Human CD45 reconstitution (12-16 weeks old) in 5 cohorts of DKO-hu HSC mice from 5 independent donor fetal livers. Shown is average % human CD45+ cells in PB of reconstituted DKO-hu HSC mice. Error bars indicate standard errors of each cohort (n=numbers of mice/cohort). B: Human cells reconstitution in PBMC of the transplanted mice. […] Human T cells from a DKO-hu mouse at 50 weeks are analyzed for expression of CD45RO and CD69. […] Human T proliferation is measured by 3-H thymidine incorporation for 16 hr after 3 days post co-culture. […] H: DKO-hu mice are vaccinated with Ova protein and Ova-specific T cell recall response is measured at 3 weeks post vaccination. […] Human T cell proliferation is measured as above.
Human T cells are negatively selected by both mouse MHC/APC and human MHC/APC because both human and mouse antigen presenting cells (APC) are detected in the mouse thymus (see Traggiai et al. 2004. Development of a human adaptive immune system in cord blood cell-transplanted mice. Science 304:104-7). […]

[3] = various amounts of AP20187, 24 hours

Row | Molecule | effect on cells transfected with only GFP expressing gene [1] | death of GFP+/FKBP-Casp8+ (transfected) cells, 7AAD+ [1, 3] | death of GFP− (untransfected bystander) cells [1, 3] | cell killing (7AAD uptake of GFP+ cells) with Alb-FKBP-Casp8 (HepG2 cells) | cell killing (7AAD uptake of GFP+ cells) with Alb-FKBP-Casp8 (293T cells) | liver H&E staining (murine hepatocytes; 24 h after the 2nd injection, TG livers) | mouse liver damage (murine hepatocytes; AFC8/DKO mice, 5 μg/g) | plasma ALT levels (murine hepatocytes; second injection 6 days after 1st injection, 5 μg/g) | human albumin levels in sera (ELISA) ([2]; 5 μg/g one hour prior to intra-splenic human hepatocytes, 80 days post transfer) | enhanced human hepatocyte engraftment ([2]; dimer injection in AFC8/DKO mice) | enhanced human hepatocyte engraftment ([2]; one injection of dimerizers) [×] | inducing Caspase8 activation and target cell depletion (FKBP-Casp8) | toxicity in mice (FKBP-Casp8) | Ova-specific human IgG (Ova-specific human IgG) | Ova-specific human T and B cell responses (human T and B cells)
1 | CC[C@H](C(=O)N1CCCC[C@H]1C(=O)O[C@H](CCc1ccc(OC)c(OC)c1)c1cccc(OCC(=O)NCC(CNC(=O)COc2cccc([C@@H](CCc3ccc(OC)c(OC)c3)OC(=O)[C@@H]3CCCCN3C(=O)[C@@H](CC)c3cc(OC)c(OC)c(OC)c3)c2)CN(C)C)c1)c1cc(OC)c(OC)c(OC)c1 [AP20187] | no detectable effect | led to death of GFP+/FKBP-Casp8+ cells | not GFP− bystander cells | functions in HepG2 | not 293T cells | Accumulation of fat droplets | transient mouse liver damage | elevated ALT levels | Enhanced human albumin levels | 50-100 × | 100 | effective | No toxicity is observed |  | 
2 | B1 |  |  |  |  |  |  |  |  |  |  |  |  |  | very low levels | induces Ova-specific human T and B cell responses

Source: patent US9173383B2, “Recombinant non-human mammalian model for hepatitis infection and immunopathogenesis” (The University of North Carolina at Chapel Hill, priority 2008, dated 2015)
